ChEMBL document CHEMBL1158624, “Prenylcoumarin with Rev-export inhibitory activity from Cnidii Monnieris Fructus” (Bioorg Med Chem Lett, 2010)
pIC50: −log10 of the molar value. Active and inactive are the calls of the source. The rule behind the calls is not given here.

Experiments:
Format in all cases: cell-based
Exportin-1 [1] = biological target: T1, Exportin-1 (Homo sapiens, UniProt O14980); test: Inhibition of CRM1-mediated hemagglutininin-tagged HIV1 Rev protein nuclear export in human HeLa cells assessed as nucleus localization after 12 hrs by indirect fluorescent antibody technique
Exportin-1 [2] = biological target: T1, Exportin-1; test: Inhibition of CRM1-mediated hemagglutininin-tagged HIV1 Rev protein nuclear export in human HeLa cells assessed as nucleus localization at 25 uM after 12 hrs by indirect fluorescent antibody technique
Exportin-1 [3] = biological target: T1, Exportin-1; test: Inhibition of CRM1-mediated hemagglutininin-tagged HIV1 Rev protein nuclear export in human HeLa cells assessed as nuclear localization at 5 uM after 12 hrs by indirect fluorescent antibody technique

T1 sequence (O14980 whole entry): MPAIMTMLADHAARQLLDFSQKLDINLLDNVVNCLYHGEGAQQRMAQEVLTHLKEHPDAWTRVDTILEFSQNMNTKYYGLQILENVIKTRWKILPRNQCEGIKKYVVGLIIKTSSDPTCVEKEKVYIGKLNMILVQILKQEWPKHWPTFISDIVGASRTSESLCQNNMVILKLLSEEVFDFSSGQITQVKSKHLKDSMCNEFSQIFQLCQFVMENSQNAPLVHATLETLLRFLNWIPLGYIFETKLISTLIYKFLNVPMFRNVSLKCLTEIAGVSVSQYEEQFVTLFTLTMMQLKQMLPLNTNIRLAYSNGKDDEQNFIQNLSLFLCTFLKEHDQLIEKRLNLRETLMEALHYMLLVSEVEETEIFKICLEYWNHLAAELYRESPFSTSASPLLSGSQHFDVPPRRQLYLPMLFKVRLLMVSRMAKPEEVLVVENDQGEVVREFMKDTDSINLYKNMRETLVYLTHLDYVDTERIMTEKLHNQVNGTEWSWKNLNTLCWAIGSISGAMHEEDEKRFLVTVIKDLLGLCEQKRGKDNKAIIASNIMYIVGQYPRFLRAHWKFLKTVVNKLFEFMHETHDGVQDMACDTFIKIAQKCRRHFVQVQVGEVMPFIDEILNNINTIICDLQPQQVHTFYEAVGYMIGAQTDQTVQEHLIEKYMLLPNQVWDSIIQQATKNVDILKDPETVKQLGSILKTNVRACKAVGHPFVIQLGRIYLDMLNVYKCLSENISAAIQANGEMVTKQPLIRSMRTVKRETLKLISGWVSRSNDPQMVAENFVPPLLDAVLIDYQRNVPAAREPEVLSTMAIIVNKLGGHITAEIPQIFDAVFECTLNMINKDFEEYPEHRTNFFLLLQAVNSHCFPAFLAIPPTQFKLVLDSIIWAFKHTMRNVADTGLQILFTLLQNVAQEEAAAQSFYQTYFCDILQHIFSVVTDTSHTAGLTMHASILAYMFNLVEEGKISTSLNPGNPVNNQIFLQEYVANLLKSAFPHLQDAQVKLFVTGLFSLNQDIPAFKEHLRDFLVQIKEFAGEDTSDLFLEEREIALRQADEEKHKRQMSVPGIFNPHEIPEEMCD

| Compound | pIC50 (Exportin-1 [1]) | inhibition (Exportin-1 [2]) | inhibition (Exportin-1 [3]) |
| --- | --- | --- | --- |
| CC(C)=CCc1cccc2ccc(=O)oc12 | 5.19 | – | – |
| COc1ccc2c(c1CC=C(C)C)OC(=O)CC2 | – | 2.6% | – |
| O=c1ccc2ccccc2o1 [COUMARIN] | < 4.60 | – | – |

Other lines, results leading:

| pIC50 (Exportin-1 [1]) | inhibition (Exportin-1 [2]) | inhibition (Exportin-1 [3]) | Compound |
| --- | --- | --- | --- |
| < 4.60 | – | – | COc1ccc2ccc(=O)oc2c1 [HERNIARIN] |
| 5.80 | – | Active | COc1ccc2ccc(=O)oc2c1CC=C(C)C [OSTHOLE] |
